Where no end group is shown, it is not given here. [ ]: non-standard residue; d: D form. Arg(Me2a) = CN(C)C(=N)NCCC[C@H](N)C(=O)O
How the values were obtained:
[1] = biological target: T1, CARM1-mediated methylation of PKM2 (Homo sapiens, UniProt Q86X55); assay: In vitro methylation assay of PKM2 by CARM1 (3H-SAM, autoradiography); format: biochemical; details: for PKM2 methylation by CARM1: FBP 100 μM or TEPP-46 1 μM; for CARM1-mediated methylation of PKM2: free peptide or peptide encapsulated in UMNP
T1 construct: HaloTag (cleaved yes); made in house; host or cells: CARM1: HEK293T (transient)
T1 sequence (Q86X55 1-608): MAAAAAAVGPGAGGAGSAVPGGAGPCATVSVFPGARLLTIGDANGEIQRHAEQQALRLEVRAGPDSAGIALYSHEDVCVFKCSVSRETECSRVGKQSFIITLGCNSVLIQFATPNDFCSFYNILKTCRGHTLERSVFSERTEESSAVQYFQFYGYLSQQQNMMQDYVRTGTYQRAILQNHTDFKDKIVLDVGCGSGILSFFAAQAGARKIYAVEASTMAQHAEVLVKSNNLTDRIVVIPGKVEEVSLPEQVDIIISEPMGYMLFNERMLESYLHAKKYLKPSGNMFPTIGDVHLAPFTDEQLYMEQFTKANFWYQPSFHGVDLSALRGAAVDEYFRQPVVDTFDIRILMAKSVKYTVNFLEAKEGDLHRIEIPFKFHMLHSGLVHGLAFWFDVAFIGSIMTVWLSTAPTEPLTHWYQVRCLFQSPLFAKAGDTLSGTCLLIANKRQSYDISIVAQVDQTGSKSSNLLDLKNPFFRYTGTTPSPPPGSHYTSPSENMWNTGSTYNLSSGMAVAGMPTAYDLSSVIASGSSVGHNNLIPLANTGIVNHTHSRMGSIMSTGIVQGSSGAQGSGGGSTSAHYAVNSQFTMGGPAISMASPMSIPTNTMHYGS
Procedure: (§1) In vitro methylation assay was performed as previously described (Wang et al., 2014). Purified histones or purified substrate proteins were mixed with the protein arginine methyltransferases (PRMTs) in the presence of ^3H-SAM. [^3H]-labeled substrates were resolved by SDS-PAGE and detected by autoradiography.
Human PRMT1-8 cDNAs were cloned into pFN21K HaloTag CMV Flexi Vector (Promega) (Wang et al., 2014). These plasmids were transiently transfected into HEK293T cells for 36 hours. The cells were harvested in binding buffer (HEPES 50 mM, NaCl 150 mM, NP40 0.005%, 0.5 mM EDTA, pH 7.5) and sonicated at 35% power (amplitude) with 10 s on, 30 s off, 4-6 cycles on ice, and then centrifuged and collected the supernatant. The supernatant was incubated with HaloLink resin (Promega) overnight at 4° C. The beads were washed with binding buffer twice and then incubated with 1M urea in binding buffer for 20 min at room temperature. After washing the beads with binding buffer twice, the proteins were eluted with 20 μg/mL TEV in cleavage buffer (DTT 1 mM in binding buffer). For purification of Flag-tagged proteins, the plasmids were transiently transfected into HEK293T cells for 36 hours. The cells were harvested in lysis buffer on ice for 30 min, and then centrifuged and collected the supernatant. Flag M2 Affinity Gel was added into the supernatant and incubated for 2 hours, and then the Gel was washed with PBS four times. The proteins were eluted by 150 μg/mL 3× Flag peptide in 0.5 M Tris HCl and 1M NaCl pH 7.5. For His-tagged or GST-tagged proteins purification, PKM1 and PKM2 cDNA were inserted pET-21a (+) or pGEX-2T plasmid. The plasmids were then transfected into E. coli BL-21 competent cells. Protein expression was induced by the presence of 0.5 mM IPTG overnight at 20° C. After centrifugation, pellet was resuspended in sonication buffer (1% Triton X-100, 1 mM EDTA, 1 mM DTT in PBS) and sonicated at 50% power (amplitude) with 30 s on, 30 s off, 10 cycles on ice or until the suspension became clear. After centrifugation, the supernatant was incubated with Ni-NTA Agarose or Glutathione Agarose Resin for 2 hours at room temperature. For His-tagged proteins, Beads were washed with PBS twice, then washed with 10 mM imidazole in elution buffer (1% Triton X-100, 0.1% glycerol in PBS) once. The His-tagged proteins were eluted with 250 mM imidazole. For GST-tagged proteins, beads were washed with PBS four times and eluted with glutathione elution buffer (50 mM Glutathione, 50 mM Tris HCl, pH 8.0, 100 mM NaCl, and 1 mM EDTA). The eluted proteins were dialyzed with PBS containing 0.1% glycerol.

[2] = biological target: T2, histone H3 methylation by CARM1 (Homo sapiens, UniProt Q86X55); assay: In vitro methylation assay of control substrate histone H3 by CARM1; format: biochemical; details: FBP 100 μM or TEPP-46 1 μM
T2 construct: HaloTag (cleaved yes); made in house; host or cells: HEK293T (transient transfection)
T2 sequence (Q86X55 1-608): T1 sequence (Q86X55 1-608)
Procedure: as §1

[3] = tested on: MCF7 cells; assay: Oxygen consumption rate (OCR), Seahorse XF96; format: cell-based; details: TEPP-46 vs DMSO, DCA treated
Procedure: (§2) The OCR was measured in an XF96 extracellular analyzer (Seahorse Bioscience). 2×10^4 cells per well were seeded into the 96-well plate and incubated in DMEM media with 10% FBS at 37° C. overnight. Next day, the media was changed to analysis media containing 10 mM glucose. The cells were incubated in a CO2-free incubator at 37° C. for 1 hour. Cells were sequentially exposed to oligomycin ([…] FCCP (0.5 μM) and rotenone (0.5 μM). Each point in traces represent the average of measurement from six different wells.

[4] = tested on: MDA-MB-231 cells; assay: Oxygen consumption rate (OCR), Seahorse XF96; format: cell-based, human; details: TEPP-46 vs DMSO, DCA treated
Procedure: as §2

[5] = tested on: MCF7 cells; assay: Lactate production normalized to cell numbers; format: cell-based; details: TEPP-46 vs DMSO, DCA treated
[6] = tested on: MDA-MB-231 cells; assay: Lactate production normalized to cell numbers; format: cell-based, human; details: TEPP-46 vs DMSO, DCA treated
[7] = tested on: methyl-PKM2; assay: Western blot analysis of methyl-PKM2 in MCF7 cells; format: cell-based; details: TEPP-46 vs DMSO
Procedure: Methyl-PKM2 specific anti-peptide antibody was prepared by Genemed Synthesis Inc., TX, using standard methods of peptide synthesis. The KLH-conjugated PKM2 peptide RYR(as)PR(as)[…] (SEQ ID NO: 58), with R445 and R447 asymmetrically dimethylated was synthesized. The peptide corresponding to human PKM2 amino acids 443-454, was used to immunize rabbits. To purify the di-me-PKM2 specific antibody, 10 mg dimethyl peptide (column A) and 10 mg control peptide (non-methyl) (column B) were coupled separately to cyanogen bromide activated agarose beads. 100 ml of antisera was then incubated with the peptide-agarose column A. The unbound antiserum was washed with 1×PBS buffer. After several washes, the antibody was eluted with 0.1 M glycine, pH 2.5; neutralized with 1M […] Tris, pH 8.0. The antibody was stabilized with 0.1% BSA [Elution A]. Elution A was then incubated with column B and then same procedure was followed for elution. The flow through from column B was the dimethyl-specific antibody (methyl-PKM2). The antisera and purified antibody were then tested by enzyme-linked immunosorbent assay (ELISA).

[8] = tested on: IP3R3; assay: Western blot analysis of IP3R3 protein levels in MCF7 cells; format: cell-based; details: parental MCF7, TEPP-46 vs DMSO
[9] = tested on: MCF7 cells (parental, PKM2 KO, PKM2wt/shPKM1, PKM2mut/shPKM1); assay: Cell death by PI staining after IP3Rs inhibition; format: cell-based; details: MCF7 lines, 3.5 μM XeB, 24 hours
Procedure: (§3) Cell apoptosis and death assays were based on the previously described method. See Cardenas, C., et al., “Selective Vulnerability of Cancer Cells by Inhibition of Ca(2+) Transfer from Endoplasmic Reticulum to Mitochondria,” Cell Rep 14, 2313-2324 (2016). Briefly, cell apoptosis was determined by annexin V/APC and propidium iodide (PI) staining. Cell death was determined by PI staining using flow cytometry.

[10] = tested on: MDA-MB-231 cells (parental, PKM2 KO, PKM2wt/shPKM1, PKM2mut/shPKM1); assay: Cell death by PI staining after IP3Rs inhibition; format: cell-based, human; details: MDA-MB-231 lines, 5 μM XeB, 24 hours
Procedure: as §3

[11] = tested on: MCF7 PKM2mut/shPKM1, MDA-MB-231 PKM2mut/shPKM1, MCF7 CARM1 KO cells; assay: MTT cell growth in ROS highly producing cells; format: cell-based; details: PKM2 KO, PKM2 KO expressing PKM2mut and CARM1 KO cells
Procedure: (§4) For quantitative proliferation assays, 1000 cells per well were seeded onto 96-well plates. 3-(4,5-dimethylthiazol-2-yl)-2,5-diphenyltetrazolium bromide (MTT) solution (20 μL per well, 4 mg/mL) was added into the wells and incubated 4 hours. After discarding the supernatant, 200 μL DMSO was added and the absorbance value (optical density) was measured at 490 nm on a Victor X5 microplate reader (Perkin Elmer, Waltham, Mass.). In the next 3 days, the absorbance value was measured every day. For 5-Ethynyl-2′-deoxyuridine (EdU) incorporation assay, 3×10^5 cells were seeded into 6-well plate and incubated 10 μM EdU for 1 hour, followed by the procedures described in the Click-iT® EdU cytometry assay kit according to the manufacturer's instructions. Cells were then analyzed on BD LSRII. For clonogenicity assay, 1000 viable transfected cells were placed in six-well plates and maintained in complete medium for 2 weeks. Colonies were washed with PBS and fixed with 3.7% formaldehyde for 15 min at room temperature, and then stained for 20 min with 0.05% crystal violet.

[12] = tested on: MDA-MB-231 PKM2mut/shPKM1 cells; assay: Cell migration of ROS highly producing cells; format: cell-based, human
Procedure: (§5) Cell migration assay was performed as previously described (Wang et al., 2014) using 8.0 μm pore size Transwell inserts (Costar Corp., Cambridge, Mass.). Briefly, 1×10^5 cells in 100 μL serum free media were added into the upper chamber, 500 μL culture media with 20% FBS was in the lower well. After 12 hours culture, removed the cells on the upper surface of the membrane and fixed the migrant cells attached to the lower surface with 3.7% formaldehyde in culture media at 37° C. for 15 min, and then stained for 20 min with 0.05% crystal violet.

[13] = tested on: MCF7 cells; assay: MTT cell proliferation assay; format: cell-based; details: peptides delivered by UMNP (FIG. 14E)
Procedure: as §4

[14] = tested on: MDA-MB-231 cells; assay: Transwell cell migration assay; format: cell-based, human; details: peptides delivered by UMNP (FIG. 14F)
Procedure: as §5

Molecule	PKM2 methylation by CARM1 [1]	histone H3 methylation by CARM1 [2]	CARM1-mediated methylation of PKM2 [1]	proliferation of MCF7 cells (MTT) [13]	migration of MDA-MB-231 cells (transwell) [14]	further results
O=P(O)(O)OC[C@H]1O[C@](O)(COP(=O)(O)O)[C@@H](O)[C@@H]1O [FBP]	blockage of PKM2 methylation by CARM1	neither TEPP-46 nor FBP treatment affected histone H3 methylation by CARM1	–	–	–	–
Cn1c2cc([S+](C)[O-])sc2c2cnn(Cc3cccc(N)c3)c(=O)c21 (centres unmarked) [TEPP-46]	blockage of PKM2 methylation by CARM1	neither TEPP-46 nor FBP treatment affected histone H3 methylation by CARM1	–	–	–	OCR [3]: significantly increased OCR; OCR [4]: significantly increased OCR; lactate production [5]: decreasing lactate production; lactate production [6]: decreasing lactate production; methyl-PKM2 level in cells [7]: blocking its methylation; IP3R3 expression [8]: elevated IP3R3 expression
C[C@@H]1CN2CCC[C@H]3CCCCCC[C@H]4CCN5CCC[C@@](O)(CCCCCC[C@@H]1O[C@H]32)[C@H]5O4 [XeB, Xestospongin B]	–	–	–	–	–	cell death (vulnerability to IP3Rs inhibition) [9]: PKM2 KO or PKM2^mut cells are more vulnerable to XeB than parental and PKM2^wt cells; cell death (vulnerability to IP3Rs inhibition) [10]: PKM2 KO or PKM2^mut cells are more vulnerable to XeB than parental and PKM2^wt cells
CC1(C)CC(NC(=O)C[P+](c2ccccc2)(c2ccccc2)c2ccccc2)CC(C)(C)N1[O] [mitTEMPO]	–	–	–	–	–	cell proliferation [11]: did not alter cell proliferation and migration; cell migration [12]: did not alter cell proliferation and migration
RYRPRAPIIAVT [non-methyl-peptide]	–	–	abrogated CARM1-mediated methylation of PKM2	inhibited proliferation of the MCF7 cells	inhibited proliferation of the MCF7 cells (FIG. 14E) and migration of MDA-MB-231 cells	–
methyl-peptide: negative control: corresponding peptide with R445 and R447 asymmetrically di-methylated (RY[Arg(Me2a)]P[Arg(Me2a)]APIIAVT; also: R445 and R447 asymmetrically di-methylated)	–	–	but not the control methyl-peptide, abrogated CARM1-mediated methylation of PKM2	but not methyl-peptide, inhibited proliferation of the MCF7 cells	but not methyl-peptide, inhibited proliferation of the MCF7 cells (FIG. 14E) and migration of MDA-MB-231 cells	–
